Experiments:
[1] = test system: H9P49 embryonic stem cells; assay: Real-time PCR of pancreatic endoderm markers, evaluation of retinoic acid analogues; assay type: cell-based, human
Procedure: At day 5, cells were collected for evaluation by FACS and real-time PCR. […] The resulting definitive endoderm cells at day 5 were exposed to the following media conditions to induce pancreatic endoderm formation: culturing in DMEM/F 12 media supplemented with 2% FBS and 1 μM all-trans retinoic acid (RA) (Catalog#R2625, Sigma, MO), or 0.1-10 μM AM-580 (4-[(5,6,7,8-Tetrahydro-5,5,8,8-tetramethyl-2-naphthalenyl)carboxamido]benzoic acid, Catalog #A8843, Sigma, MO), or 0.1-1 μM TTNPB (4-[(E)-2-(5,6,7,8-Tetrahydro-5,5,8,8-tetramethyl-2-naphthalenyl)-1-propenyl]benzoic acid Arotinoid acid, Catalog #T3757, Sigma, MO) for 3 days. AM-580 and TTNPB are retinoic acid analogs with affinity for retinoic acid receptors. RA treatment was followed by additional three day treatment in DMEM/F12 media supplemented with 2% FBS and 20-50 ng/ml bFGF (Catalog #F0291, Sigma, MO).

[2] = test system: human embryonic stem cell line H1; assay: Real-time PCR of definitive endoderm markers, H1 on human serum or […] (Examples 30, 31, 35); assay type: cell-based
Procedure: Cultures of the human embryonic stem cell line H1 at passage 55 were grown and differentiated on human serum (Sigma, #H1388, MO) coated plates. 0.5 ml of human serum was added to each well of 6 well tissue culture treated dish, incubated for 1 hr at room temperature, and aspirated before adding human embryonic stem cells. After cells reached 80% confluency, they were treated as follows: 2 days 0.5% FBS containing 10 ng/ml mouse recombinant Wnt3a (R&D) or 100 nM GSK-3B inhibitor IX (Catalog #361550, Calbiochem, CA) and 100 ng/mlActivin A (R&D). This was followed by 3 days 2% FBS plus 100 ng/mlActivin A. Cultures were then analyzed by real-time PCR (FIG. 46, panels a & b). […] These findings parallel our findings for human embryonic stem cells cultured on […]™ or human fibronectin coated plates.
The effectiveness of a number of commercially available GSK-3B inhibitors was evaluated in formation of DE from human embryonic stem cells. The following GSK-3B inhibitors were evaluated at 100 nM: GSK-3B inhibitor VIII (Catalog #361549, Calbiochem, CA), GSK-3B inhibitor IX (Catalog #361550, Calbiochem, CA), GSK-3B inhibitor XI (Catalog #361553, Calbiochem, CA), GSK-3B inhibitor XII (Catalog #361554, Calbiochem, CA). […] Control cultures were treated with low serum plus high dose of AA. FIG. 47, panels a and b depicts the gene expression of definitive endoderm markers at day 5. GSK-3B inhibitor IX and XI were both effective in inducing DE formation as compared to GSK-3B inhibitor VIII and XII.
The following combinations of WNT1+AA were tested:
a) 20 ng/ml of WNT1+100 ng/ml AA in 0.5% FBS+DM-F12 for days 1-2 followed by 2% FBS+DM-F12+100 ng/ml AA for day three, b) 20 ng/ml of WNT1+100 ng/ml AA in 0.5% FBS+DM-F12 for days 1-2 followed by 2% FBS+DM-F12+100 ng/ml AA for days 3-5, c) 10 ng/ml of WNT1+100 ng/ml AA in 0.5% FBS+DM-F12 for days 1-2 followed by 2% FBS+DM-F12+100 ng/ml AA for day three, d) 10 ng/ml of WNT1+100 ng/ml AA in 0.5% FBS+DM-F12 for days 1-2 followed by 2% FBS+DM-F12+100 ng/ml AA for days 3-5, e) 20 ng/ml of WNT1+100 ng/ml AA in 0.5% FBS+DM-F12 for days 1-2 followed by 2% FBS+DM-F12+100 ng/ml AA+20 ng/ml of WNT1 for day three, f) 20 ng/ml of WNT1+100 ng/ml AA in 0.5% FBS+DM-F12 for days 1-2 followed by 2% FBS+DM-F12+100 ng/ml AA+20 ng/ml of WNT1 for days 3-5.

[3] = test system: human embryonic stem cell line H9; assay: Real-time PCR of marker gene expression, H9 on MEF (Examples 2-7); assay type: cell-based
Procedure: Cells were harvested at the time points indicated in FIG. 3 and assayed by PCR for the expression of genes shown (FIGS. 3, 4 and 5).
After this time interval, the cells were then treated for six days with combinations of retinoic acid and FGF as outlined in Example 2, then the culture medium was removed and replaced with medium comprising DMEM/F12 with 2% FBS, containing the γ-secretase inhibitors L-685,458 at 10 μM for three days.
Cells were continuously cultured for another 3 to 5 days in basal medium with retinoic acid at 1 μM, alone or with bFGF. RNA samples were harvested from cells at various time points along this process to help evaluate the directed differentiation of the cells. Furthermore, culture medium and factors were regularly removed and replenished throughout the differentiation protocol.
RNA extraction, purification, and cDNA synthesis. RNA samples were purified by binding to a silica-gel membrane (Rneasy Mini Kit, Qiagen, CA) in the presence of an ethanol-containing, high-salt buffer followed by washing to remove contaminants. The RNA was further purified using a TURBO DNA-free kit (Ambion, INC), and high-quality RNA was then eluted in water. Yield and purity were assessed by A260 and A280 readings on a spectrophotometer. cDNA copies were made from purified RNA using an ABI (ABI, CA) high capacity cDNA archive kit.
Real-time PCR amplification and quantitative analysis.
Final data were expressed relative to a calibrator sample.

[4] = test system: pancreatic endoderm cells derived from human embryonic stem cells; assay: Passage and expansion of pancreatic endoderm cells in culture; assay type: cell-based; conditions: 50 ng/ml FGF10; 6 day culture period
Procedure: The low serum DMEM/F12 contained 0% (v/v) fetal bovine serum (FBS) on day 1, 0.5% (v/v) FBS on day two and 2% (v/v) FBS on each day thereafter. After four days of differentiation, the cells were cultured in low serum DMEM/F12 contained 2% (v/v) FBS, 1 μM retinoic acid and 50 ng/ml bFGF for a total of six more days. After the six days of differentiation, the cells were maintained in culture in low serum DMEM/F12 contained 2% (v/v) FBS in the presence of 50 ng/ml FGF10 for a total of 6 days. During the six-day culture period, the pancreatic endoderm cells were passaged twice and cell population-doubling time is about 36 to 48 hours during this 6-day culture. On days 0, 3, and 6 of culture, Q-PCR was used to measure the expression of marker genes indicative of pancreatic endoderm.

[5] = 1 μM RA followed by exposure to bFGF

## CC1(C)CCC(C)(C)c2cc(C(=O)Nc3ccc(C(=O)O)cc3)ccc21 [AM-580, 4-[(5,6,7,8-Tetrahydro-5,5,8,8-tetramethyl-2-naphthalenyl)carboxamido]benzoic acid]
[1]; 10 μM AM-580
  AFP and CDX-2 expression: suppressed
  expression of PDX-1: high expression

## O=C1NC(=O)C(c2cn(CCCO)c3ncccc23)=C1c1cnccn1 [GSK-3B inhibitor XI]
[2]; H1P54 on MATRIGEL, 100 nM for first two days, compared to GSK-3B inhibitor VIII and XII
  inducing DE formation: effective

## CC1=C(/C=C/C(C)=C/C=C/C(C)=C/C(=O)O)C(C)(C)CCC1 [retinoic acid, all-trans retinoic acid, reference compound]
[1]; [5]
  foregut endoderm markers, such as CDX-2 and AFP: robust expression
  pancreatic endoderm markers, such as PDX-1: significantly upregulates
[3]; 1 μM retinoic acid and bFGF in the absence of activin A
  expression of GLUT-2 and PTF1a: increase
[3]; activin A or retinoic acid alone
  expression of Pdx1: did not induce
[3]; retinoic acid and FGF-4 for five days after 7 days activin A
  expression of α-fetoprotein (AFP) and albumin: further increased
[3]; three days activin A, then 5 days 1 μM retinoic acid and 50 ng/ml bFGF in the absence of activin A
  level of Pdx1 expression versus activin A treatment alone for 5 days: approximately 3500 fold

B1: FGF10: member of the fibroblast growth factor family (protein, UniProt O15520 38-208, looked up)
Fibroblast growth factor 10: QALGQDMVSPEATNSSSSSFSSPSSAGRHVRSYNHLQGDVRWRKLFSFTKYFLKIEKNGKVSGTKKENCPYSILEITSVEIGVVAVKAINSNYYLAMNKKGKLYGSKEFNNDCKLKERIEENGYNTYASFNWQHNGRQMYVALNGKGAPRRGQKTRRKNTSAHFLPMVVHS
[4]
  expression of the pancreatic endoderm marker Pdx1: maintained expression

B2: Wnt-1: Wnt ligand (PeproTech, NJ, Catalogue #120-17) (protein, UniProt P04628 28-370, looked up)
Proto-oncogene Wnt-1: ANSSGRWWGIVNVASSTNLLTDSKSLQLVLEPSLQLLSRKQRRLIRQNPGILHSVSGGLQSAVRECKWQFRNRRWNCPTAPGPHLFGKIVNRGCRETAFIFAITSAGVTHSVARSCSEGSIESCTCDYRRRGPGGPDWHWGGCSDNIDFGRLFGREFVDSGEKGRDLRFLMNLHNNEAGRTTVFSEMRQECKCHGMSGSCTVRTCWMRLPTLRAVGDVLRDRFDGASRVLYGNRGSNRASRAELLRLEPEDPAHKPPSPHDLVYFEKSPNFCTYSGRLGTAGTAGRACNSSSPALDGCELLCCGRGHRTRTQRVTERCNCTFHWCCHVSCRNCTHTRVLHECL
[2]; H1P55 on MATRIGEL, 20 ng/ml Wnt1 with 100 ng/ml of AA
  definitive endoderm markers (Bry, CXCR4, GSC, SOX17, HNF-3B, and GATA-4): significant upregulation

Source: US20100255580A1, “Differentiation of Human Embryonic Stem Cells” (LIFESCCAN, INC., priority 2007, published 2010)
